Measurements: PMC11062922 (Nature Chemical Biology, 2023)
pEC50, pKd: −log10 of the molar value. Blank lines part the entries; values can stand above or below the molecule they belong to.

What was measured:
[1] = target: T1, HSP90B1 (Homo sapiens, UniProt P14625); experiment: Kinobeads two-dose competition binding: HSP90B1; settings: read-out: Lestaurtinib Drugmatrix value, Gene Name HSP90B1
T1 construct: endogenous in cells

[2] = target: T2, BUB1 (Homo sapiens, UniProt O43683); experiment: Kinobeads two-dose competition binding: BUB1; settings: read-out: Lestaurtinib Drugmatrix value, Gene Name BUB1
T2 construct: endogenous in cells

[3] = target: T3, ERN1 (Homo sapiens, UniProt O75460); experiment: Kinobeads two-dose competition binding: ERN1; settings: read-out: Lestaurtinib Drugmatrix value, Gene Name ERN1
T3 construct: endogenous in cells

[4] = target: T4, ACAD11 (Homo sapiens, UniProt Q709F0); experiment: Kinobeads two-dose competition binding: ACAD11; settings: read-out: Lestaurtinib Drugmatrix value, Gene Name ACAD11
T4 construct: endogenous in cells
T4 sequence (Q709F0 1-780): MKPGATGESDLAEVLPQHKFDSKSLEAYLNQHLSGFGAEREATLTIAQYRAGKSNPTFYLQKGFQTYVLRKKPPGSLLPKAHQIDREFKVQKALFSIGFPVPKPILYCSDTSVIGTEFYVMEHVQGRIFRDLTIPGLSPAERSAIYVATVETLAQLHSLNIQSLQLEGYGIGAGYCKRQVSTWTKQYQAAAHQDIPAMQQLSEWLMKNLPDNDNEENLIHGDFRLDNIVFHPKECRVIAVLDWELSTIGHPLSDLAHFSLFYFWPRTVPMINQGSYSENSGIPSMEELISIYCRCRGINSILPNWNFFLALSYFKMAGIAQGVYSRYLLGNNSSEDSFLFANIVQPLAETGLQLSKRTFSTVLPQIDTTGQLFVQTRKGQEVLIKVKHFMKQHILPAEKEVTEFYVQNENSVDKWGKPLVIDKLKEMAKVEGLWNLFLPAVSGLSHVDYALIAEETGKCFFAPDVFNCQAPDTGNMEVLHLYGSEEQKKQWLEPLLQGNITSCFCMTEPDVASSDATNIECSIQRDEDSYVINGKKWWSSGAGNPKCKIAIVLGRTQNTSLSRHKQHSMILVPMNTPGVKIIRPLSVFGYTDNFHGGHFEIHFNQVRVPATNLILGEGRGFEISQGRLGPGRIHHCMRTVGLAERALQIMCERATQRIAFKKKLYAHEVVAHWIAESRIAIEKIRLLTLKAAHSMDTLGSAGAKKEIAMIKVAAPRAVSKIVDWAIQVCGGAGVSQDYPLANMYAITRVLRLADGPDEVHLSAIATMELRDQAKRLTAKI

[5] = target: T5, endogenous kinases and other proteins enriched by Kinobeads from mixed cancer cell lysates (Homo sapiens, UniProt Q13873); experiment: Kinobeads pulldown, full dose-response (eight doses); format: binding; settings: target BMPR2;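 note: competition with Kinobeads ε after inhibitor preincubation in lysate (5 mg/ml protein) for 45 min at 4 °C, DMSO control, doses 0.3–1,000 nM, label-free LC–MS/MS quantification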
T5 construct: endogenous in cells

[6] = target: T6, endogenous kinases and other proteins enriched by Kinobeads from mixed cancer cell lysates (Homo sapiens, UniProt Q9H0K1); experiment: as above; format: binding; settings: target SIK2
T6 construct: endogenous in cells

[7] = target: T7, endogenous kinases and other proteins enriched by Kinobeads from mixed cancer cell lysates (Homo sapiens, UniProt Q96PY6); experiment: as above; format: binding; settings: target NEK1
T7 construct: endogenous in cells

[8] = target: T8, endogenous kinases and other proteins enriched by Kinobeads from mixed cancer cell lysates (Homo sapiens, UniProt Q12851); experiment: as above; format: binding; settings: target MAP4K2
T8 construct: to maximize the representation of endogenous proteins; endogenous in cells

[9] = target: T9, endogenous kinases and other proteins enriched by Kinobeads from mixed cancer cell lysates (Homo sapiens, UniProt P51946); experiment: as above; format: binding; settings: target CCNH
T9 construct: endogenous in cells

[10] = target: T10, endogenous kinases and other proteins enriched by Kinobeads from mixed cancer cell lysates (Homo sapiens, UniProt Q2M2I8); experiment: as above; format: binding; settings: target AAK1
T10 construct: to maximize the representation of endogenous proteins; endogenous in cells

[11] = target: T11, endogenous kinases and other proteins enriched by Kinobeads from mixed cancer cell lysates (Homo sapiens, UniProt P37173); experiment: as above; format: binding; settings: target TGFBR2; read-out: apparent Kd
T11 construct: endogenous in cells

[12] = target: T12, endogenous kinases and other proteins enriched by Kinobeads from mixed cancer cell lysates (Homo sapiens, UniProt O94806); experiment: as above; format: binding; settings: target PRKD3
T12 construct: endogenous in cells

[13] = target: T13, endogenous kinases and other proteins enriched by Kinobeads from mixed cancer cell lysates (Homo sapiens, UniProt Q9NWZ3); experiment: as above; format: binding; settings: target IRAK4
T13 construct: endogenous in cells

[14] = target: T14, endogenous kinases and other proteins enriched by Kinobeads from mixed cancer cell lysates (Homo sapiens, UniProt P27448); experiment: as above; format: binding; settings: target MARK3
T14 construct: endogenous in cells

[15] = target: T15, endogenous kinases and other proteins enriched by Kinobeads from mixed cancer cell lysates (Homo sapiens, UniProt Q15375); experiment: as above; format: binding; settings: target EPHA7
T15 construct: endogenous in cells

[16] = target: T16, endogenous kinases and other proteins enriched by Kinobeads from mixed cancer cell lysates (Homo sapiens, UniProt P35916); experiment: as above; format: binding; settings: target FLT4
T16 construct: endogenous in cells

[17] = target: T17, endogenous kinases and other proteins enriched by Kinobeads from mixed cancer cell lysates (Homo sapiens, UniProt Q7KZI7); experiment: as above; format: binding; settings: target MARK2
T17 construct: endogenous in cells

[18] = target: T18, endogenous kinases and other proteins enriched by Kinobeads from mixed cancer cell lysates (Homo sapiens, UniProt Q96L34); experiment: as above; format: binding; settings: target MARK4
T18 construct: endogenous in cells

[19] = target: T19, endogenous kinases and other proteins enriched by Kinobeads from mixed cancer cell lysates (Homo sapiens, UniProt O15530); experiment: as above; format: binding; settings: target PDPK1;PDPK2P
T19 construct: endogenous in cells

[20] = target: T20, endogenous kinases and other proteins enriched by Kinobeads from mixed cancer cell lysates (Homo sapiens, UniProt O94804); experiment: as above; format: binding; settings: target STK10
T20 construct: endogenous in cells

T10 sequence (Q2M2I8 whole entry): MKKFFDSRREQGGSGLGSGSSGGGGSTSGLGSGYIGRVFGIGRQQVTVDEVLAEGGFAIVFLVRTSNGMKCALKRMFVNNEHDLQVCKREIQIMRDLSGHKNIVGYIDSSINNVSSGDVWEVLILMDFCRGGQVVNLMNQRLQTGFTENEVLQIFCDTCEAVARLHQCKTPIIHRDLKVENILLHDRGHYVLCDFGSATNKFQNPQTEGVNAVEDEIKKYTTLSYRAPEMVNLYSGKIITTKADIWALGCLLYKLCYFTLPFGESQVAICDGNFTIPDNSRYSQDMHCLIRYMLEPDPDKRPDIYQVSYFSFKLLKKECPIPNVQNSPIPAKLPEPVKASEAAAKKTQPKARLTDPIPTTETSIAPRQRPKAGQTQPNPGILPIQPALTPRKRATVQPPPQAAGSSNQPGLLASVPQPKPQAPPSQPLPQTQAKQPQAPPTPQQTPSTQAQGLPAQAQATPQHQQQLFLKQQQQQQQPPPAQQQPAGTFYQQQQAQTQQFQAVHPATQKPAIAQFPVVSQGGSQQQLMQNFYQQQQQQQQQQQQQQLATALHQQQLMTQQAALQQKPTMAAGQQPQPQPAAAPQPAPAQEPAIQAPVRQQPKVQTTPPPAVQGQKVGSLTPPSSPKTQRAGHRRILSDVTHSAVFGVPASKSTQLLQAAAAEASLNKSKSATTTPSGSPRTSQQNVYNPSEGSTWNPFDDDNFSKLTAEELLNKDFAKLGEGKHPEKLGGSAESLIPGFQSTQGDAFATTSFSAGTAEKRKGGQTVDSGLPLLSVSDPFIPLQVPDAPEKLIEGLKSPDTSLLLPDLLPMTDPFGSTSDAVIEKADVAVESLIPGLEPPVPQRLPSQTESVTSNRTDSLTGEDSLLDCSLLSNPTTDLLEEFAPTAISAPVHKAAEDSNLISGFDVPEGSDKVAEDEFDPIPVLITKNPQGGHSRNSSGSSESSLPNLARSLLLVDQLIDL
T9 sequence (P51946 whole entry): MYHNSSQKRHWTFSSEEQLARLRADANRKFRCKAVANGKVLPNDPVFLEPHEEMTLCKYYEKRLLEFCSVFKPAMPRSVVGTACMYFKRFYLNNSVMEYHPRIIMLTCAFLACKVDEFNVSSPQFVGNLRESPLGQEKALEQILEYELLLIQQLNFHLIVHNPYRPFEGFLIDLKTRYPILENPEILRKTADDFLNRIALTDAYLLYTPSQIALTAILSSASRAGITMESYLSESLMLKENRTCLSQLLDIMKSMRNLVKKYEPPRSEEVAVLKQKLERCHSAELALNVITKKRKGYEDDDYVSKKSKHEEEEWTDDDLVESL
T14 sequence (P27448 whole entry): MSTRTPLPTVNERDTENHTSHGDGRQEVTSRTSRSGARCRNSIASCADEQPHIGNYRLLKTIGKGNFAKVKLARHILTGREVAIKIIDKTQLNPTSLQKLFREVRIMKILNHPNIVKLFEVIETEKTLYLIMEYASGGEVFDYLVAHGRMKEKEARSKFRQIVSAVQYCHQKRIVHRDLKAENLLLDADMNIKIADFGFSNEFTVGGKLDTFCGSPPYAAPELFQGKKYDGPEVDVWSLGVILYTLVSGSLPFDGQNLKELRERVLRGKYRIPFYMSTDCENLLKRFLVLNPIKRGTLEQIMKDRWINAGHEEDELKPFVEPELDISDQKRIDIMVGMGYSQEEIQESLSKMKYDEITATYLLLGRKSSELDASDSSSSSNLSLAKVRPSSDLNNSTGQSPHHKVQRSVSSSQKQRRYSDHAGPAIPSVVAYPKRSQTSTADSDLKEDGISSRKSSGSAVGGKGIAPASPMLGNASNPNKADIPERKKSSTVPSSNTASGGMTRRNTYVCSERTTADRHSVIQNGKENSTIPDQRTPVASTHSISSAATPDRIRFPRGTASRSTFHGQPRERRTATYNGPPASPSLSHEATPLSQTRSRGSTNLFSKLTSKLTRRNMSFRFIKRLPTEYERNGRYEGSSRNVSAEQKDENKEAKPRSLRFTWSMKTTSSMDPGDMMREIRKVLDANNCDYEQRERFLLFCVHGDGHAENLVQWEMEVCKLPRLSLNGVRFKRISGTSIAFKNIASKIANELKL
T8 sequence (Q12851 whole entry): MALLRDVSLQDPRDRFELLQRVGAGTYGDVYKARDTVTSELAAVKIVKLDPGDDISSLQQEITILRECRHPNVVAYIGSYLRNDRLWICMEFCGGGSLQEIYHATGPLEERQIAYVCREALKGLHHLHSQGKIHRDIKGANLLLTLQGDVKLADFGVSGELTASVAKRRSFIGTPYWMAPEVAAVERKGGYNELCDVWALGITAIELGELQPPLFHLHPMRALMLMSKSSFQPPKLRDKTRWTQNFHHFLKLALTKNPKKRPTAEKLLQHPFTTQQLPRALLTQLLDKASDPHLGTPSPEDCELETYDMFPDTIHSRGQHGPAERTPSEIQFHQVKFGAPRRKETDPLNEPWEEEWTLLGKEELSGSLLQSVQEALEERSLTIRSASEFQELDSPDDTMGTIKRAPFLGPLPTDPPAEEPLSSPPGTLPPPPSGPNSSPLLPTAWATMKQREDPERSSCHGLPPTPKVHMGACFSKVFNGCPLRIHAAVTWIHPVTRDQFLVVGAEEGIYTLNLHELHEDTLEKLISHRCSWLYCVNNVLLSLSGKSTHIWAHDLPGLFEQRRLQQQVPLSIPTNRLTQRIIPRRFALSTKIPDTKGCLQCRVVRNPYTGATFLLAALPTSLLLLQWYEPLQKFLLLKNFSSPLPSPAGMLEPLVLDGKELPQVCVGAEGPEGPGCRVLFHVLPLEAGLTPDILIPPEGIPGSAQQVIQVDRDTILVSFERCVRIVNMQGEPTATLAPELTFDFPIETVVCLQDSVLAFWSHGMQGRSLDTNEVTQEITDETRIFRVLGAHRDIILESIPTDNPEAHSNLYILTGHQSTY
T7 sequence (Q96PY6 whole entry): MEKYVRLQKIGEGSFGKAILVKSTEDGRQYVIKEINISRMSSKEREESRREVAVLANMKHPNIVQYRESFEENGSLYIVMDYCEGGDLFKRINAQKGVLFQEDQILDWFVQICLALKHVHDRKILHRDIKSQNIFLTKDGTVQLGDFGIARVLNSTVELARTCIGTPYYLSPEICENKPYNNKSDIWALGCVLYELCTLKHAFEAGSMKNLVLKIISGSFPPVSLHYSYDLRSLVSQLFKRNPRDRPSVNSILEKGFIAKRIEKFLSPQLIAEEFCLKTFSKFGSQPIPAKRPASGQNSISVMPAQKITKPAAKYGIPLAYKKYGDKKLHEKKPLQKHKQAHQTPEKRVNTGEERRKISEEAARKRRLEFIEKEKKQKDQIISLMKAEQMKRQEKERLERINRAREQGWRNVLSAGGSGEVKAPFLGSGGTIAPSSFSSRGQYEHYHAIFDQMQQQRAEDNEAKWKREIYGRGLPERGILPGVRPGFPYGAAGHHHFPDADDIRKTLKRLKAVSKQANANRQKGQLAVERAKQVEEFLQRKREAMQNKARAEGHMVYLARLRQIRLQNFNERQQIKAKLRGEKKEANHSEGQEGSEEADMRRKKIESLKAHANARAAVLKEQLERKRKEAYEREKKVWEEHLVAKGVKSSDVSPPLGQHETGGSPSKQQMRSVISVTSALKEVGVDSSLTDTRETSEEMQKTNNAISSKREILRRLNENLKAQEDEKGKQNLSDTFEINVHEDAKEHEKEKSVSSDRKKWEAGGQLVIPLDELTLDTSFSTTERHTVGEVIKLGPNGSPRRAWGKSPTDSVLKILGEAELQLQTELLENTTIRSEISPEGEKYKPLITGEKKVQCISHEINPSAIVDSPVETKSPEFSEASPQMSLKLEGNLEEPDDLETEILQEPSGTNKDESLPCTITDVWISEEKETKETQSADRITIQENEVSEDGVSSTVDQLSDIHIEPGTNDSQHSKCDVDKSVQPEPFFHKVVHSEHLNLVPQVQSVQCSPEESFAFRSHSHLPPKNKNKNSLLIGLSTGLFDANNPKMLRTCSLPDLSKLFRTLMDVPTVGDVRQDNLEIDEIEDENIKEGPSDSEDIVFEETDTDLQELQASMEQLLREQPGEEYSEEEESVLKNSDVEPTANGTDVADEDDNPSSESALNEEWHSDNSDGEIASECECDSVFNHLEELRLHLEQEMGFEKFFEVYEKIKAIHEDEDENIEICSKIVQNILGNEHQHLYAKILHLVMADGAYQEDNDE
T19 sequence (O15530 whole entry): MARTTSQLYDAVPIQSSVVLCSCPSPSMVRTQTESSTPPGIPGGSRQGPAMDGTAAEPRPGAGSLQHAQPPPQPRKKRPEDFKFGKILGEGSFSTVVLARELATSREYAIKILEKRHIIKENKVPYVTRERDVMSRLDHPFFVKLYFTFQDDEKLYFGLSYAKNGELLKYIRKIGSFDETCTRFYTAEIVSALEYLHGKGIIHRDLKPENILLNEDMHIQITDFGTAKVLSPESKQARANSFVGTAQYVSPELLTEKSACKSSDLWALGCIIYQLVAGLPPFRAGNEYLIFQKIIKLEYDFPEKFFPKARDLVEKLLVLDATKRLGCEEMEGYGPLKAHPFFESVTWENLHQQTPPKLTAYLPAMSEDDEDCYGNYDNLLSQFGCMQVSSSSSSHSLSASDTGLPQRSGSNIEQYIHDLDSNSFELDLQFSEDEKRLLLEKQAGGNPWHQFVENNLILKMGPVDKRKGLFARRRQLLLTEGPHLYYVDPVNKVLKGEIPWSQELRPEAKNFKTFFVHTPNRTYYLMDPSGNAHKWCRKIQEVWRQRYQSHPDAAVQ

SMILES: C[C@]12O[C@H](C[C@]1(O)CO)n1c3ccccc3c3c4c(c5c6ccccc6n2c5c31)CNC4=O [Lestaurtinib]
potency estimated from few doses [1]: 979 nM | potency estimated from few doses [2]: 854 nM | potency estimated from few doses [3]: 176 nM | potency estimated from few doses [4]: 890 nM

pEC50 [5]: 6.49 | pKd ([5]; read-out: apparent Kd): 6.59 | pEC50 [6]: 6.59 | pKd ([6]; read-out: apparent Kd): 6.85 | pEC50 [7]: 6.23 | pKd ([7]; read-out: apparent Kd): 6.28 | pEC50 [8]: 6.23 | pKd ([8]; read-out: apparent Kd): 6.34 | pEC50 [9]: 5.76 | pKd ([9]; read-out: apparent Kd): 5.80 | pEC50 [10]: 6.00 | pKd ([10]; read-out: apparent Kd): 6.14 | pKd [11]: 5.53 | pEC50 [12]: 5.85 | pKd ([12]; read-out: apparent Kd): 5.93 | pEC50 [13]: 6.14 | pKd ([13]; read-out: apparent Kd): 6.17 | pEC50 [14]: 6.17 | pKd ([14]; read-out: apparent Kd): 6.17 | pEC50 [15]: 6.09 | pKd ([15]; read-out: apparent Kd): 6.21 | pEC50 [16]: 6.25 | pKd ([16]; read-out: apparent Kd): 6.51 | pEC50 [17]: 6.08 | pKd ([17]; read-out: apparent Kd): 6.12 | pEC50 [18]: 5.98 | pKd ([18]; read-out: apparent Kd): 5.98 | pEC50 [19]: 6.19 | pKd ([19]; read-out: apparent Kd): 6.19 | pEC50 [20]: 6.14 | pKd ([20]; read-out: apparent Kd): 6.14
SMILES: Cn1cc(-c2nc(N[C@@H]3CCCC[C@@H]3N)c(F)c3c2C(=O)NC3)cn1 [TAK659]
